From patent publication US20210347709A1, “RADIOFLUORINATED GPC3-BINDING PEPTIDES FOR PET IMAGING OF HEPATOCELLULAR CARCINOMA” (University of Southern California, priority 2020, published 2021)
Read-outs that look alike come from different tables or passages of the source.

Experiments:
[1] = Measurement of lipophilicity (Log P), 1-octanol/PBS partition; format: physicochemical; conditions: 1-octanol / PBS pH 7.4, mean ± SD, n = 4
Protocol: Measurement of Lipophilicity (Log P). Approximately 185 kBq of Al[^18F]F-GP2076 or Al[^18F]F-GP2633 in 0.5 ml of phosphate-buffered saline (PBS) (pH 7.4) was mixed with 0.5 ml of 1-octanol. The mixture was vigorously shaken for 1 min, and then centrifuged at 12,000 rpm for 5 min to partition the organic and aqueous layers. Aliquots of 0.2 ml each layer were taken and the radioactivity was determined by gamma counting (GC-1200, USTC Chuangxin Co. Ltd. Zonkia Branch, China). The distribution coefficient P was calculated as the ratio of radioactivity in the organic phase to that in the aqueous phase. The experiment was carried out in quadruplicate.

[2] = Ex vivo biodistribution in HepG2 tumor bearing nude mice; conditions: both sexes, BALB/c nude, mouse, iv, 1.85 MBq, total radioactivity, 1 h post-injection, gamma counting
Protocol: (§1) All animal experiments were conducted according to the guideline of the Nanfang Hospital Animal Ethics Committee at the Southern Medical University. Male or female BALB/c nude mice (about 4-6 weeks old) were obtained from the Laboratory Animal Center at Southern Medical University. The HepG2 and McA-RH7777 HCC xenografts were established by subcutaneous injection of 1×10^6 tumor cells into the left shoulder of nude mice. The animals were used for in vivo studies when the tumors reached a size of 0.5-1 cm in diameter (4-6 weeks after inoculation).
(§2) Ex vivo biodistribution was evaluated at 60 min after the tail vein injection of 1.85 MBq of Al[^18F]F-GP2076 or Al[^18F]F-GP2633. Mice were euthanized and dissected. Major tissues and organs were collected and weighed wet. The radioactivity in the tissues and organs was measured using a gamma counter. The results were presented as % ID/g. For each animal, the radioactivity of the tissue and organ samples was calibrated with a known aliquot of the injected activity. Mean uptake (% ID/g) for a group of animals was calculated with standard deviations.

HepG2 tumor = experiment: as above; conditions: 1 h post-injection, gamma counting
Protocol: as §1, §2

[3] = In vivo metabolic stability in HepG2 tumor-bearing mice; conditions: 1 h after intravenous injection
Protocol: In Vivo Metabolic Stability. HepG2 tumor-bearing mice (n=3/group) were intravenously injected with 5.55 MBq of Al[^18F]F-GP2076 or Al[^18F]F-GP2633. At 1 h after the injection, the mice were euthanized, and the HepG2 tumor, blood, liver, kidneys, and urine samples were collected. Briefly, the blood sample was immediately centrifuged for 5 min at 12,000 rpm. The HepG2 tumor, liver, and kidneys were homogenized and then centrifuged for 5 min at 12,000 rpm. The supernatant from each sample was passed through an ultrafiltration tube (Millipore, USA) and then centrifuged for 10 min at 12,000 rpm. The urine sample was diluted with 100 μl of PBS. The filtrate from each sample was injected into analytic HPLC. The HPLC eluents were collected with a fraction collector (one fraction/30 sec), and the radioactivity of each fraction was measured by gamma counting.

[4] = In vitro stability in PBS and mouse serum; format: in vitro ADME; conditions: PBS at room temperature and mouse serum at 37° C., 2 h incubation, HPLC
Protocol: In Vitro Stability. The stability of Al[^18F]F-GP2076 or Al[^18F]F-GP2633 was evaluated in PBS and mouse serum. Briefly, 5.55 MBq of Al[^18F]F-GP2076 or Al[^18F]F-GP2633 was incubated with 0.5 ml of PBS at room temperature or mouse serum at 37° C. with gentle shaking. The stability test was carried out at 2 h after the incubation. For the PBS study, an aliquot of the solution was taken, and the radiochemical purity was determined by analytical HPLC. For the mouse serum study, after the addition of TFA, the mixture was passed through a 0.2-μm filter. An aliquot of the soluble fraction was taken, and the radiochemical purity was examined by analytical HPLC.

[5] = test system: GPC3-positive HepG2 tumor; experiment: MicroPET/CT imaging and biodistribution, HepG2 tumor model; format: in vivo, nude mice; conditions: for Tumor-to-kidneys (T/K) uptake ratio / Tumor-to-liver (T/L) uptake ratio / Tumor-to-muscle (T/M) uptake ratio: HepG2 (GPC3+) tumor bearing mice; for Kidneys uptake / Liver uptake / Tumor uptake: HepG2 (GPC3+) tumor model; for Kidneys uptake / Liver uptake / Tumor uptake / defluorination in vivo (from low bone uptake): PET; for Tumor uptake: decay-corrected; for clearance / excretion route from the mouse body: as visualized by PET images
Protocol: MicroPET/CT Imaging and Biodistribution. MicroPET/CT scans were carried out using a Siemens Inveon PET/CT scanner (Siemens, Germany). Tumor-bearing mice (n=3/group) were intravenously injected with 5.55 MBq of Al[^18F]F-GP2076 or Al[^18F]F-GP2633 under isoflurane anesthesia. A ten-minute static PET scan for each animal was acquired at 30, 60, and 120 min after the injection. 3-Dimensional ordered subset expectation maximization (3D-OSEM) algorithm was used for the PET reconstruction, and CT was applied for attenuation correction. Detailed procedures for the microPET/CT imaging and biodistribution are provided in ESM.
as §1
Inveon Research Workplace (IRW) 3.0 software (Siemens, Germany) was used to measure the regions of interest (ROIs) determined by superimposing the ellipsoid volume of interest (VOI) on the target tissues. The radioactivity concentrations were measured by the mean pixel intensity within each VOI and converted to dose/ml using a calibration constant. Assuming the tissue density of 1 g/ml, the ROI was then converted to dose per gram and normalized as the percent injected dose per gram (% ID/g). Tumor-to-nontarget uptake ratios, including tumor-to-muscle (T/M), tumor-to-liver (T/L), and tumor-to-kidneys (T/K) ratios, were calculated by dividing the radioactivity uptake in tumor by that in the corresponding normal tissue or organ.

[6] = HepG2 tumor, read-out: HepG2 Tumor uptake, ex vivo biodistribution
[7] = blood, read-out: Blood uptake, ex vivo biodistribution
[8] = bone, read-out: Bone uptake, ex vivo biodistribution
[9] = brain, read-out: Brain uptake, ex vivo biodistribution
[10] = heart, read-out: Heart uptake, ex vivo biodistribution
[11] = kidneys, read-out: Kidneys uptake, ex vivo biodistribution
[12] = liver, read-out: Liver uptake, ex vivo biodistribution
[13] = muscle, read-out: Muscle uptake, ex vivo biodistribution

SMILES | logP [1] | tissue uptake at 1 h [2, 6] | tissue uptake at 1 h [2, 7] | tissue uptake at 1 h [2, 8] | tissue uptake at 1 h [2, 9] | tissue uptake at 1 h [2, 10] | tissue uptake at 1 h [2, 11] | tissue uptake at 1 h [2, 12] | tissue uptake at 1 h [2, 13] | HepG2 Tumor uptake, ex vivo biodistribution (HepG2 tumor) | Liver uptake, ex vivo biodistribution (HepG2 tumor) | percentage of parent F-18 labeled peptide in HepG2 tumor [3] | percentage of parent F-18 labeled peptide in blood [3] | percentage of parent F-18 labeled peptide in kidneys [3] | percentage of parent F-18 labeled peptide in liver [3] | percentage of parent F-18 labeled peptide in urine [3] | percentage of intact radiotracer (in vitro stability) [4] | Tumor-to-liver (T/L) uptake ratio ([5]; 30 min) | Tumor-to-muscle (T/M) uptake ratio ([5]; 30 min) | Tumor-to-kidneys (T/K) uptake ratio ([5]; 60 min) | also measured
CC(C)C[C@H](NC(=O)[C@H](CCCNC(=N)N)NC(=O)[C@H](CC(N)=O)NC(=O)[C@H](CC(=O)O)NC(=O)[C@H](CCCNC(=N)N)NC(=O)CNC(=O)CNC(=O)CNC(=S)Nc1ccc(CC2CN(CC(=O)O)CCN(CC(=O)O)CCN2CC(=O)O)cc1)C(=O)N[C@@H](CC(N)=O)C(=O)N[C@H](C(=O)NCC(=O)NCC(=O)N[C@H](C(=O)N[C@@H](Cc1ccc(O)cc1)C(=O)N[C@@H](Cc1ccccc1)C(=O)N[C@@H](CC(C)C)C(=O)N[C@H](C(=O)N[C@H](C(=O)N[C@@H](CCCNC(=N)N)C(=O)N[C@@H](CCC(N)=O)C(=O)O)[C@@H](C)O)[C@@H](C)O)[C@@H](C)O)C(C)C (single isomer, unassigned) [Al[^18F]F-GP2633] | -2.42 ± 0.09 | 1.96 ± 0.29 %ID/g | 0.45 ± 0.12 %ID/g | 0.36 ± 0.08 %ID/g | 0.12 ± 0.12 %ID/g | 0.39 ± 0.27 %ID/g | 37 ± 4.7 %ID/g | 0.97 ± 0.07 %ID/g | 0.31 ± 0.05 %ID/g | 1.96±0.29 % ID/g | 0.97±0.07 % ID/g | 93.01±2.98% | 93.57±1.38% | 7.70±2.56% | 92.95±2.77% | No parent | > 98% | 1.77 ±0.20 | 9.11±0.79 | 0.09±0.01 | Tumor-to-kidneys (T/K) uptake ratio ([5]; 30 min): 0.08 ± 0.01; Tumor-to-liver (T/L) uptake ratio ([5]; 60 min): 2.00±0.18; Tumor-to-muscle (T/M) uptake ratio ([5]; 60 min): 12.17±0.62; Tumor-to-kidneys (T/K) uptake ratio ([5]; 120 min): 0.04 ± 0.01; Tumor-to-liver (T/L) uptake ratio ([5]; 120 min): 1.28±0.25; Tumor-to-muscle (T/M) uptake ratio ([5]; 120 min): 6.20±1.80; Kidneys uptake ([5]; 30 min): 39.40±0.98 % ID/g; Liver uptake ([5]; 30 min): 1.80±0.36 % ID/g; Tumor uptake ([5]; 30 min): 3.13±0.31 % ID/g; Kidneys uptake ([5]; 60 min): 36.86±2.05 % ID/g; Liver uptake ([5]; 60 min): 1.70±0.26 % ID/g; Tumor uptake ([5]; 60 min): 3.37±0.35 % ID/g; Kidneys uptake ([5]; 120 min): 29.27 ± 3.31 % ID/g; Liver uptake ([5]; 120 min): 1.04 ± 0.20 % ID/g; Tumor uptake ([5]; 120 min): 1.30±0.17 % ID/g; defluorination in vivo (from low bone uptake) [5]: did not occur; clearance / excretion route from the mouse body [5]: predominantly through the renal system
CC(C)C[C@H](NC(=O)[C@H](CCCNC(=N)N)NC(=S)Nc1ccc(CC2CN(CC(=O)O)CCN(CC(=O)O)CCN2CC(=O)O)cc1)C(=O)N[C@@H](CC(N)=O)C(=O)N[C@H](C(=O)NCC(=O)NCC(=O)N[C@H](C(=O)N[C@@H](Cc1ccc(O)cc1)C(=O)N[C@@H](Cc1ccccc1)C(=O)N[C@@H](CC(C)C)C(=O)N[C@H](C(=O)N[C@H](C(=O)N[C@@H](CCCNC(=N)N)C(=O)N[C@@H](CCC(N)=O)C(=O)O)[C@@H](C)O)[C@@H](C)O)[C@@H](C)O)C(C)C (single isomer, unassigned) [Al[^18F]F-GP2076] | -2.1 ± 0.07 | 1.13 ± 0.02 %ID/g | 0.36 ± 0.17 %ID/g | 0.29 ± 0.13 %ID/g | 0.1 ± 0.1 %ID/g | 0.36 ± 0.15 %ID/g | 6.37 ± 1.45 %ID/g | 2.3 ± 0.56 %ID/g | 0.24 ± 0.07 %ID/g | 1.13±0.02 % ID/g | 2.30±0.56 % ID/g | 97.69±2.51% | 96.68±1.55% | 54.94±2.12% | 96.06±0.54% | 3.31±0.20% | > 95% | 0.43±0.06 | 5.56±1.36 | 0.31±0.04 | Tumor-to-liver (T/L) uptake ratio ([5]; 60 min): 0.59±0.14; Tumor-to-muscle (T/M) uptake ratio ([5]; 60 min): 5.13±2.08; Tumor-to-liver (T/L) uptake ratio ([5]; 120 min): 0.46±0.40; Tumor-to-muscle (T/M) uptake ratio ([5]; 120 min): 2.68±0.29; Kidneys uptake ([5]; 30 min): 9.83±3.69 % ID/g; Liver uptake ([5]; 30 min): 5.10±0.53 % ID/g; Tumor uptake ([5]; 30 min): 2.20±0.36 % ID/g; Kidneys uptake ([5]; 60 min): 7.03±2.32 % ID/g; Liver uptake ([5]; 60 min): 3.70±0.98 % ID/g; Tumor uptake ([5]; 60 min): 2.13±0.55 % ID/g; Kidneys uptake ([5]; 120 min): 2.27 ± 1.07 % ID/g; Liver uptake ([5]; 120 min): 2.07 ± 0.96 % ID/g; Tumor uptake ([5]; 120 min): 0.73±0.32 % ID/g; defluorination in vivo (from low bone uptake) [5]: did not occur; clearance / excretion route from the mouse body [5]: primarily through the hepatic pathway
